Results reported in publication PMC7917842, “Chlortetracycline, a Novel Arf Inhibitor That Decreases the Arf6-Dependent Invasive Properties of Breast Cancer Cells” (Molecules, 2021).

Assays:
Arf6 = biological target: T1, Arf6 (Homo sapiens, UniProt P62330); test: mant-GTP loading (FRET) on purified Arf6 with EFA6A and azolectin liposomes; also […]GTPγS binding and tryptophan fluorescence; format: biochemical
T1 construct: full-length Arf6, C-terminal hexa-his tag (non myristoylated); also myristoylated Arf6; with EFA6A (exchange factor in the IC50 assay)
T1 sequence (Q8NDX1 whole entry): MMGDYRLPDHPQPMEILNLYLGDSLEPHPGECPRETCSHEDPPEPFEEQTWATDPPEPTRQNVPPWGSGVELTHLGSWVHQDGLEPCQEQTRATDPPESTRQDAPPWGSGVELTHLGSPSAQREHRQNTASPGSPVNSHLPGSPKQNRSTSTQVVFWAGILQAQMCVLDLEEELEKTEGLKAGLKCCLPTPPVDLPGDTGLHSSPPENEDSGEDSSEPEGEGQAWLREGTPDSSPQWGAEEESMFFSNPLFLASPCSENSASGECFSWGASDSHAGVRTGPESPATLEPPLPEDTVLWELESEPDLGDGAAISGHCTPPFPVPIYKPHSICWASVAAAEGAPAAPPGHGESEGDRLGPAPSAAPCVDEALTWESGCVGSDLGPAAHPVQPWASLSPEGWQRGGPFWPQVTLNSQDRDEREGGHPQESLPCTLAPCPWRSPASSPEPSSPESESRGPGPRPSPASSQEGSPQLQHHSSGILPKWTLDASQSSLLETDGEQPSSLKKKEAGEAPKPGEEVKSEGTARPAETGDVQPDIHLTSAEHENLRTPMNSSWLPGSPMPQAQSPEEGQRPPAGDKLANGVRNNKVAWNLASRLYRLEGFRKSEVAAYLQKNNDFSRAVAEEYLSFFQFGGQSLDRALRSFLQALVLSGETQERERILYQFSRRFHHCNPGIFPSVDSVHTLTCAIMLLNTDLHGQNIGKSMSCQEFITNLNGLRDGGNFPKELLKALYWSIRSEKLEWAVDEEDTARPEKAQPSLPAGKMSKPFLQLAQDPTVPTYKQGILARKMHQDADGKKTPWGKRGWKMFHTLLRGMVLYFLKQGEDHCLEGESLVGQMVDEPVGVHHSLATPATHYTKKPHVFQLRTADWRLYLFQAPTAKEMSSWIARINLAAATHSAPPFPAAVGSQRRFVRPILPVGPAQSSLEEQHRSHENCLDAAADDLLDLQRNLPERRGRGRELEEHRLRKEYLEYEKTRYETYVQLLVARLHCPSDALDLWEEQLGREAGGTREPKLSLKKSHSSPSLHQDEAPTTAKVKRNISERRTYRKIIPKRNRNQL
T1 sequence (P62330 2-175): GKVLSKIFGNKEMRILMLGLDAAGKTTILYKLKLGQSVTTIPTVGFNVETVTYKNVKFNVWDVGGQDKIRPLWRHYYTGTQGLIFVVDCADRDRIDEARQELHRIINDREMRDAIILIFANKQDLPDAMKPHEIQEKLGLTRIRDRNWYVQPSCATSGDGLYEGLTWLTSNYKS

Arf1 = biological target: T2, Arf1 (Homo sapiens, UniProt P84077); test: spontaneous mant-GTP loading on purified myrArf1 with azolectin, […] CTC; also ARNO-catalysed exchange; format: biochemical
T2 construct: recombinant myristoylated Arf1 (myrArf1)
T2 sequence (P84077 2-181): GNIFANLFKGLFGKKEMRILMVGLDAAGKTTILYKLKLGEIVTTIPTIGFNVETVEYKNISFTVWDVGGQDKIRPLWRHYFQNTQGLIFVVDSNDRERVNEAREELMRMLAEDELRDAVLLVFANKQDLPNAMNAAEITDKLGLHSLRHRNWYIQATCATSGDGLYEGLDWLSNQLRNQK

CN(C)[C@@H]1C(O)=C(C(N)=O)C(=O)[C@@]2(O)C(O)=C3C(=O)c4c(O)ccc(Cl)c4[C@@](C)(O)[C@H]3C[C@@H]12 [CTC, chlortetracycline]
IC50 (Arf6): 75 µM | spontaneous mant-GTP loading on purified myrArf1 with azolectin, 100 μM CTC; als (Arf1): CTC was able to strongly inhibit the spontaneous activation on the myristoylated forms of Arf6 (myrArf6) and Arf1 (myrArf1)
